Values joined by “and” are separate entries in the source; they are usually repeats but may differ in a detail not shown here. Equal values may be shown once.
Conditions: Liquid, Transpiration method

CC(C)[N+](=O)[O-] [2-nitropropane]
Conditions	vapor or sublimation pressure
274.7 K	0.609 kPa
274.8 K	0.604 kPa and 0.597 kPa
279.5 K	0.799 kPa
279.6 K	0.827 kPa
284.4 K	1.092 kPa and 1.091 kPa
289.3 K	1.459 kPa
294.2 K	1.953 kPa
294.3 K	1.9 kPa
299.2 K	2.574 kPa
304.1 K	3.344 kPa
304.2 K	3.336 kPa
309.1 K	4.299 kPa
314.1 K	5.612 kPa and 5.563 kPa

CC(C)(C)[N+](=O)[O-] [2-methyl-2-nitropropane]
Conditions	vapor or sublimation pressure [kPa]
299.3 K	2.054
303.2 K	2.553
304.2 K	2.705
308.2 K	3.261
309.2 K	3.527
313.2 K	4.205
314.2 K	4.41
318.2 K	5.269
323.2 K	6.65
328.1 K	8.479
